Data on two molecules can be found in the NIST ThermoML archive (doi:10.1016/j.fluid.2017.10.025).

Numbers after ± are expanded uncertainties.

The conditions of data set [1]: 293.15 K; 101.33 kPa; Liquid; buoyancy.
Data set [2] in a line: refractive index (Na D-line) (dimensionless). Conditions: 298.15 K; 101.33 kPa; Liquid; 2AWJ refractometer.

Usually mass density stands for the mass of a sample divided by its volume. Usually refractive index stands for a measure of how strongly the sample bends light. As to `C=CCO` [2-propenol], the mass density in data set [1] was 855 ± 0.7 kg/m3. Moreover, the refractive index in data set [2] turned out to be 1.4129 ± 0.0003.
The like results for `O` [water] were, in that order, 998.3 ± 0.6 kg/m3 and 1.3327 ± 0.0002.
